Read-outs that look alike come from different tables or passages of the source. Square brackets hold non-standard residues; d marks the D form. Peptide text beside a SMILES is read from it.
Tests used:
SRIF receptors = target: T1, SRIF receptors (Rattus norvegicus, UniProt P30680); assay: Yeast bioassay for SRIF antagonist activity (zone of growth inhibition of LY364 cells growing in response to SRIF); type: cell-based; conditions: 10 µL of 5 mg/mL on filter disk, S-14 10 nM; for Inhibition Zone (mm): sample type 4th iteration, read after 3 days, compare only within same experiment; for Yeast Assay (mm): Table III, diameter of zone of growth inhibition
T1 construct: expressed in transfected cells; host or cells: Saccharomyces cerevisiae strain LY364
Experimental: Agar plates containing LY364 cells that are growing in the presence of added SRIF are the basis for a sensitive SRIF antagonist assay, whereby zones of growth inhibition result from the addition of SRIF antagonists to the surface of the agar plate (see L.A. Price, et al., Molecular and Cellular Biology, 15, 6188-6195, 1995, incorporated herein by reference).
In this assay, LY364 cells are grown overnight in 2 mL of synthetic complete(SC) medium (3.4 g/L YNB without amino acids and ammonium sulfate, 10 g/L ammonium sulfate and 1.4 g/L CSM-ura-trp) with glucose (2%) and without uracil and tryptophan. These cells are washed and cultured for 4 to 8 hours in 5 mL of SC medium with lactate (3%) and without uracil and tryptophan, and finally grown overnight in 5 mL of SC medium with galactose (2%) and without uracil and tryptophan. Molten (50° C) SC agar medium with galactose (2%) and without uracil, tryptophan and histidine is adjusted to pH 6.8 with KOH, mixed with 2 x 10^4 cells/mL and SRIF (S-14, 10 nM) and poured into square (20 x 20 cm) petri dishes. Sterile filter disks are placed on the surface of the agar, and saturated with 10 µL of water or DMSO containing 5 mg/mL test peptides. After three days, the plates display a uniform cloudy background of […] cells growing in response to the added SRIF. […] This zone is quantified by measuring its diameter (mm), which varies according to the potency of the SRIF antagonist. Those peptides or mixtures of peptides displaying the largest zones of inhibition are further characterized.
Values are compared among samples in the same experiment, as the degree of yeast growth varies somewhat from assay to assay. For the first five sample types, in which progressively less complex mixtures of peptides are found, this assay is the primary determining factor in choosing which samples form the basis of subsequent syntheses.
Plates are read after 3 days. Samples shown in Table I in bold type are chosen for further synthesis. In Table I, all amino acids are D-amino acids and dashes represent undefined amino acid residues.

SSTR2 = SSTR2 (Rattus norvegicus, UniProt P30680); assay: cAMP accumulation in forskolin-stimulated GH4C1/SSTR2 cells (SPA radioimmunoassay); type: cell-based; set-up: expressed in transfected cells; host or cells: GH4C1 rat pituitary tumor cells; conditions: for Emax: GH4-C1, read-out: cAMP Assay Intrinsic activity; for Emax / cAMP Assay Intrinsic activity: percent reversal of SSTR2 activation by SRIF or MK678, 0% = forskolin plus agonist, 100% = forskolin alone
Experimental: This is the basis of a common assay for SRIF agonists and antagonists, whereby SRIF agonists reduce artificially stimulated cAMP levels, and SRIF antagonists reverse the effect of SRIF. […] This increases the response to SRIF and provides a greater dynamic range for the measurement of SRIF antagonist activity.
Stimulation of cells. GH4C1/SSTR2 cells, grown in DMEM with 10% bovine serum, are released from a tissue culture dish by incubation for several minutes at 37° C with PBS containing 0.5 mM EDTA. Cells are washed in induction buffer (PBS containing 100 µM IBMX (an inhibitor of cAMP breakdown) and 2 mM CaCl2) at room temperature, and resuspended at 2 x 10^6/mL in induction buffer. Into each well of a 96-well tray are added 50 µL of a 2 X concentration of stimulants in induction buffer. […] To initiate stimulation of the cells, 50 µL (100,000) cells are added to each well, mixed by shaking 10 seconds on a plate shaker and placed at 37° C for 15 minutes. Stimulation is arrested and cells are lysed by adding 15 µL 0.33 N HCI to each well and incubating the plate for 30 minutes at 37° C. Samples are neutralized by addition of 15 µL 0.25 N NaOH/50 mM Hepes pH 7.4. Baseline cAMP levels are determined in samples with no added forskolin or SRIF, and each treatment is performed in triplicate.
cAMP assay. To measure accumulated cAMP in the samples, a radioimmunoassay is employed. The scintillation proximity assay (SPA, Amersham, Arlington Heights, IL) allows the rapid measurement of ^125I cAMP bound to a specific antibody without separating bound radioligand from free radioligand. Each of the following reagents (15 µL) are added per well in a 96-well tray: supernatants from the cell stimulation; ^125I cAMP; SPA beads conjugated to monkey anti-rabbit IgG antibodies; and rabbit anti-cAMP antibodies. For the standard curve, known amounts of cAMP (0.2 - 12.8 pmol) are added in place of cell supernatants. The 96-well tray is sealed, shaken at room temperature overnight and measured for bound radioligand in a MicroBeta liquid scintillation counter (Wallac, Gaithersburg. MD).
The intrinsic activity of an SRIF antagonist is the percent reversal of the SSTR2 activation by SRIF or MK678, wherein 0% is defined by cAMP levels in samples treated with forskolin plus SRIF or MK678 and 100% is the cAMP level measured after treatment with forskolin alone. Therefore, increased intrinsic activity of a test compound indicates increased antagonist activity of said test compound.
An inverse agonist is a compound that is not only a pure antagonist (i.e. lacking agonist activity), but also blocks the constitutive activity of an unoccupied receptor. One indication of inverse agonist activity is the ability of a SRIF antagonist to increase cAMP levels in the absence of added SRIF.

[1] = tested on: serum growth hormone (GH) levels; assay: In vivo serum growth hormone levels in anaesthetized rats (radioimmunoassay); set-up: species or system Male Sprague-Dawley rats; conditions: GRF 1 µg alone at 30 min
Experimental: Evaluation in anaesthetized rats. Male Sprague-Dawley rats are anaesthetized with Sagatal and fitted so as to allow efficient intravenous treatment with control and test compounds as well as frequent blood sampling. Blood samples are tested for growth hormone (GH) levels by radioimmunoassay. Thirty minutes after the initiation of blood sampling, rats are given 5 µg, 25 µg or 50 µg of peptide 1.
Peptide 1 is tested in combination with growth hormone releasing factor (GRF), to investigate whether said peptide may be mimicking the action of GRF. Anaesthetized rats are given GRF (1 µg) alone and in combination with peptide 1 (50 µg). […]

[2] = dose response of SRIF agonist upon cAMP levels in forskolin stimulated GH4C1/SSTR2 cells, agonist alone

T1 sequence (P30680 whole entry): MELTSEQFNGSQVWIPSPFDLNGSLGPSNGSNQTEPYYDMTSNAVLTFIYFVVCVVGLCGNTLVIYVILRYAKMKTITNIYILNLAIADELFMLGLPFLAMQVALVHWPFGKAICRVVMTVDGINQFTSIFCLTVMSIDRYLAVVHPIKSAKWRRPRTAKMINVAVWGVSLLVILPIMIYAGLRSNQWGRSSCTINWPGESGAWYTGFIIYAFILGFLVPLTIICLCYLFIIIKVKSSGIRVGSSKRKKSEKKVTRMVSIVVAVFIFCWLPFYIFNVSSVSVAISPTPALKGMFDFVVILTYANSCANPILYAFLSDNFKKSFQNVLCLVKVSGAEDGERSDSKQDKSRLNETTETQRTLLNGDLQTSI
Sequence of SSTR2 (P30680 whole entry): as above

| Inhibition Zone (mm) (SRIF receptors) | cAMP Assay Intrinsic activity (SSTR2; test peptide 2 µM) | Yeast Assay (mm) (SRIF receptors) | Compound | further results |
| --- | --- | --- | --- | --- |
| 13 mm | – | – | CC[C@@H](C)[C@@H](NC(=O)[C@@H](Cc1ccccc1)NC(=O)[C@@H](Cc1c[nH]cn1)NC(C)=O)C(=O)N[C@H](CCCNC(=N)N)C(=O)N[C@H](Cc1c[nH]c2ccccc12)C(=O)NCC(N)=O [His Phe Ile Arg Trp Gly] (Ac-[dH][dF][dI][dR][dW]G-NH2) | – |
| – | – | – | CC(C)[C@@H]1NC(=O)[C@H](CCCCN)NC(=O)[C@@H](Cc2c[nH]c3ccccc23)NC(=O)[C@H](Cc2ccc(O)cc2)NC(=O)[C@H](C)N(C)C(=O)[C@H](Cc2ccccc2)NC1=O [MK678, reference compound] | cAMP (SSTR2; Forskolin 1.25 µM + MK 678 10 nM, no Peptide 1 (forskolin alone 3.04; baseline 0.36)): 0.91 pM per 4 x 10^4 cells; EC50 (SSTR2; [2]): 143 pM; Maximum (SSTR2; [2]): 6.431; Minimum (SSTR2; [2]): 2.673 |
| – | – | – | CC[C@@H](C)[C@@H](NC(=O)[C@@H](Cc1ccccc1)NC(=O)[C@@H](Cc1c[nH]cn1)NC(C)=O)C(=O)N[C@H](CCCNC(=N)N)C(=O)NCC(=O)N[C@H](Cc1ccccc1)C(N)=O [Peptide 26, h-f-i-r-g-f] (Ac-[dH][dF][dI][dR]G[dF]-NH2) | Emax (SSTR2; test peptide 2 µM): 4.51% |
| – | – | – | CC[C@@H](C)[C@@H](NC(=O)[C@@H](Cc1c[nH]c2ccccc12)NC(=O)[C@@H](Cc1c[nH]cn1)NC(C)=O)C(=O)N[C@H](CCCNC(=N)N)C(=O)N[C@H](Cc1ccccc1)C(=O)N[C@H](Cc1ccccc1)C(N)=O [Peptide 29, h-w-i-r-f-f] (Ac-[dH][dW][dI][dR][dF][dF]-NH2; N-terminus and C-terminus assumed) | Emax (SSTR2; test peptide 100 µM): 21.3% |
| – | – | – | CC[C@@H](C)[C@@H](NC(=O)[C@@H](CCCNC(=N)N)NC(=O)[C@@H](Cc1c[nH]c2ccccc12)NC(=O)[C@@H](Cc1ccccc1)NC(=O)[C@@H](Cc1c[nH]cn1)NC(C)=O)C(=O)N[C@H](Cc1ccccc1)C(N)=O [Peptide 30, h-f-w-r-i-f] (Ac-[dH][dF][dW][dR][dI][dF]-NH2; N-terminus and C-terminus assumed) | Emax (SSTR2; test peptide 100 µM): 12.9% |
| – | – | – | CC[C@@H](C)[C@@H](NC(=O)[C@@H](CCCNC(=N)N)NC(=O)[C@@H](Cc1ccccc1)NC(=O)[C@@H](Cc1c[nH]cn1)NC(C)=O)C(=O)N[C@H](Cc1c[nH]c2ccccc12)C(=O)N[C@H](Cc1ccccc1)C(N)=O [Peptide 31, h-f-r-i-w-f] (Ac-[dH][dF][dR][dI][dW][dF]-NH2; N-terminus and C-terminus assumed) | Emax (SSTR2; test peptide 100 µM): 13% |
| – | – | – | CC[C@@H](C)[C@@H](NC(C)=O)C(=O)N[C@H](CCCNC(=N)N)C(=O)N[C@H](Cc1c[nH]c2ccccc12)C(=O)N[C@H](Cc1ccccc1)C(=O)N[C@H](Cc1c[nH]cn1)C(=O)N[C@H](Cc1ccccc1)C(N)=O [Peptide 33, i-r-w-f-h-f] (Ac-[dI][dR][dW][dF][dH][dF]-NH2; N-terminus and C-terminus assumed) | Emax (SSTR2; test peptide 100 µM): 11.5% |
| – | – | – | CC[C@@H](C)[C@H]1NC(=O)[C@@H](Cc2ccccc2)NC(=O)[C@@H](Cc2c[nH]cn2)NC(=O)[C@@H](Cc2ccccc2)NC(=O)[C@@H](Cc2c[nH]c3ccccc23)NC(=O)[C@@H](CCCNC(=N)N)NC1=O [Peptide 35, h-f-i-r-w-f] (cyclo([dH][dF][dI][dR][dW][dF])) | Emax (SSTR2; test peptide 100 µM): 122% |
| 15 mm | – | – | CC[C@@H](C)[C@@H](NC(=O)[C@@H](Cc1ccccc1)NC(=O)[C@@H](Cc1c[nH]cn1)NC(C)=O)C(=O)N[C@H](CCCNC(=N)N)C(=O)N[C@H](Cc1c[nH]c2ccccc12)C(=O)N[C@H](CC(C)C)C(N)=O [Seq Id No. 18] (Ac-[dH][dF][dI][dR][dW][dL]-NH2) | – |
| 14 mm | – | – | CC[C@@H](C)[C@@H](NC(=O)[C@@H](Cc1ccccc1)NC(=O)[C@@H](Cc1c[nH]cn1)NC(C)=O)C(=O)N[C@H](CCCNC(=N)N)C(=O)N[C@H](Cc1c[nH]c2ccccc12)C(=O)N[C@@H](C(N)=O)[C@H](C)O [Seq Id No. 19] (Ac-[dH][dF][dI][dR][dW][dT]-NH2) | – |
| 16 mm | – | – | CC[C@@H](C)[C@@H](NC(=O)[C@@H](Cc1ccccc1)NC(=O)[C@@H](Cc1c[nH]cn1)NC(C)=O)C(=O)N[C@H](CCCNC(=N)N)C(=O)N[C@H](Cc1c[nH]c2ccccc12)C(=O)N[C@H](Cc1ccc(O)cc1)C(N)=O [Seq Id No. 20] (Ac-[dH][dF][dI][dR][dW][dY]-NH2) | – |
| 16 mm | – | – | CC[C@@H](C)[C@@H](NC(=O)[C@@H](Cc1c[nH]c2ccccc12)NC(=O)[C@@H](CCCNC(=N)N)NC(=O)[C@H](NC(=O)[C@@H](Cc1ccccc1)NC(=O)[C@@H](Cc1c[nH]cn1)NC(C)=O)[C@H](C)CC)C(N)=O [Seq Id No. 21] (Ac-[dH][dF][dI][dR][dW][dI]-NH2) | – |
| 15 mm | – | – | CC[C@@H](C)[C@@H](NC(=O)[C@@H](Cc1ccccc1)NC(=O)[C@@H](Cc1c[nH]cn1)NC(C)=O)C(=O)N[C@H](CCCNC(=N)N)C(=O)N[C@H](Cc1c[nH]c2ccccc12)C(=O)N[C@H](C)C(N)=O [Seq Id No. 22] (Ac-[dH][dF][dI][dR][dW][dA]-NH2) | – |
| 15 mm | – | – | CC[C@@H](C)[C@@H](NC(=O)[C@@H](Cc1ccccc1)NC(=O)[C@@H](Cc1c[nH]cn1)NC(C)=O)C(=O)N[C@H](CCCNC(=N)N)C(=O)N[C@H](Cc1c[nH]c2ccccc12)C(=O)N[C@H](CC(N)=O)C(N)=O [Seq Id No. 23] (Ac-[dH][dF][dI][dR][dW][dN]-NH2) | – |
| 18 mm | – | – | CC[C@@H](C)[C@@H](NC(=O)[C@@H](Cc1ccccc1)NC(=O)[C@@H](Cc1c[nH]cn1)NC(C)=O)C(=O)N[C@H](CCCNC(=N)N)C(=O)N[C@H](Cc1c[nH]c2ccccc12)C(=O)N[C@H](CCSC)C(N)=O [Seq Id No. 24] (Ac-[dH][dF][dI][dR][dW][dM]-NH2) | – |
| 16 mm | – | – | CC[C@@H](C)[C@@H](NC(=O)[C@@H](Cc1ccccc1)NC(=O)[C@@H](Cc1c[nH]cn1)NC(C)=O)C(=O)N[C@H](CCCNC(=N)N)C(=O)N[C@H](Cc1c[nH]c2ccccc12)C(=O)N[C@H](Cc1c[nH]c2ccccc12)C(N)=O [Seq Id No. 25] (Ac-[dH][dF][dI][dR][dW][dW]-NH2) | – |
| 16 mm | – | – | CC[C@@H](C)[C@@H](NC(=O)[C@@H](Cc1ccccc1)NC(=O)[C@@H](Cc1c[nH]cn1)NC(C)=O)C(=O)N[C@H](CCCNC(=N)N)C(=O)N[C@H](Cc1c[nH]c2ccccc12)C(=O)N[C@H](CCC(N)=O)C(N)=O [Seq Id No. 26] (Ac-[dH][dF][dI][dR][dW][dQ]-NH2) | – |
| – | – | – | GRF: growth hormone releasing factor (GRF) [reference compound] | SGH ([1]; time 0 min (before dosing)): 11.2 ng/mL; SGH ([1]; time 15 min (before dosing)): 11.3 ng/mL; SGH ([1]; time 30 min (time of dose)): 8.4 ng/mL; SGH ([1]; time 35 min): 67.1 ng/mL; SGH ([1]; time 40 min): 103.5 ng/mL; SGH ([1]; time 45 min): 53.1 ng/mL |
| – | 26.2% | 15 mm | H-f-i-r-w-f [Peptide 13] | – |
| – | 13.0% | none | a-f-i-r-w-f [Peptide 2] | – |
| – | 65.2% | none | f-h-i-r-w-f [Peptide 24] | – |
| – | -7.2% | none | f-i-r-w-f [Peptide 7] | – |
| – | 10.8% | none | f-r-i-r-w-f [Peptide 25] | – |
| – | 29.6% | 16 mm | h-F-i-r-w-f [Peptide 14] | – |
| – | 9.33% | none | h-a-i-r-w-f [Peptide 3] | – |
| – | 9.71% | 9 mm | h-f-I-r-w-f [Peptide 15] | – |
| – | 41.8% | 16 mm | h-f-a-r-w-f [Peptide 4] | – |
